Results on six cell lines are retold here after the supplement of paper PMC10307832.

What all share (experiment): relative viability (nuclei count vs DMSO), 5 days (fraction); higher = more cells survive
Compound in the assay “AZD8055 + OSI-027”: COc1ccc(-c2ccc3c(N4CCOC[C@@H]4C)nc(N4CCOC[C@@H]4C)nc3n2)cc1CO [AZD8055] + COc1cccc2cc(-c3nc([C@H]4CC[C@H](C(=O)O)CC4)n4ncnc(N)c34)[nH]c12 [OSI-027] (partner 0.5 µM)
The gist of the method:
(§1)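 Lung cancer cell lines in 1536-well plates were dosed by pin tool the day after seeding, either with one drug alone or with a fixed anchor-drug dose plus five library-drug doses (not always all listed) in √10 steps. After 5 days, cells were fixed and their nuclei stained in one step (final 0.05% Triton X-100, 1% formaldehyde, 1 ug/ml Hoechst), then counted on 4× images. Relative viability is the nuclei count in treated wells divided by that in vehicle wells. Values are medians of duplicate plates.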

Compound in the assay “AZD8055 + Crizotinib”: COc1ccc(-c2ccc3c(N4CCOC[C@@H]4C)nc(N4CCOC[C@@H]4C)nc3n2)cc1CO [AZD8055] + C[C@@H](Oc1cc(-c2cnn(C3CCNCC3)c2)cnc1N)c1c(Cl)ccc(F)c1Cl [Crizotinib] (partner 1 µM)
The procedure, abridged: as §1

Compound in the assay “AZD8055 + Linsitinib”: COc1ccc(-c2ccc3c(N4CCOC[C@@H]4C)nc(N4CCOC[C@@H]4C)nc3n2)cc1CO [AZD8055] + C[C@]1(O)C[C@@H](c2nc(-c3ccc4ccc(-c5ccccc5)nc4c3)c3c(N)nccn32)C1 [Linsitinib] (partner 1 µM)
The procedure, abridged:
as §1

Compound in the assay “AZD8055 + Tozasertib”: COc1ccc(-c2ccc3c(N4CCOC[C@@H]4C)nc(N4CCOC[C@@H]4C)nc3n2)cc1CO [AZD8055] + Cc1cc(Nc2cc(N3CCN(C)CC3)nc(Sc3ccc(NC(=O)C4CC4)cc3)n2)n[nH]1 [Tozasertib] (partner 0.1 µM)
The gist of the method:
as §1

As for HCC-15, the relative viability with AZD8055 + OSI-027 (first compound 0.01 µM) was found to be 0.805; with AZD8055 + OSI-027 (first compound 0.03162 µM), 0.732; with AZD8055 + OSI-027 (first compound 0.1 µM) it was 0.658; in the assay with AZD8055 + OSI-027 (first compound 0.3162 µM) it was 0.38; with AZD8055 + OSI-027 (first compound 1 µM), 0.303; with AZD8055 + Crizotinib (first compound 0.01 µM), 0.816. In addition, the relative viability in the assay with AZD8055 + Crizotinib (first compound 0.03162 µM) came to 0.788; in the assay with AZD8055 + Crizotinib (first compound 0.1 µM), 0.746; with AZD8055 + Crizotinib (first compound 0.3162 µM), 0.529; with AZD8055 + Crizotinib (first compound 1 µM), 0.334; with AZD8055 + Linsitinib (first compound 0.01 µM), 0.778; in the assay with AZD8055 + Linsitinib (first compound 0.03162 µM), 0.808. Further, the relative viability came out at 0.644 with AZD8055 + Linsitinib (first compound 0.1 µM); 0.467 in the assay with AZD8055 + Linsitinib (first compound 0.3162 µM); 0.29 with AZD8055 + Linsitinib (first compound 1 µM); 0.437 with AZD8055 + Tozasertib (first compound 0.01 µM); 0.379 in the assay with AZD8055 + Tozasertib (first compound 0.03162 µM); 0.415 with AZD8055 + Tozasertib (first compound 0.1 µM). Further, the relative viability is 0.296 in the assay with AZD8055 + Tozasertib (first compound 0.3162 µM) and 0.222 with AZD8055 + Tozasertib (first compound 1 µM).

PC-3 [JPC-3]: the relative viability turned out to be 0.84 in the assay with AZD8055 + OSI-027 (first compound 0.01 µM); 0.742 with AZD8055 + OSI-027 (first compound 0.03162 µM); 0.756 in the assay with AZD8055 + OSI-027 (first compound 0.1 µM); 0.768 in the assay with AZD8055 + OSI-027 (first compound 0.3162 µM); 0.566 with AZD8055 + OSI-027 (first compound 1 µM); 1.06 in the assay with AZD8055 + Crizotinib (first compound 0.01 µM). Further, the relative viability with AZD8055 + Crizotinib (first compound 0.03162 µM) worked out at 1.05; with AZD8055 + Crizotinib (first compound 0.1 µM), 1.01; in the assay with AZD8055 + Crizotinib (first compound 0.3162 µM) it was 0.712; with AZD8055 + Crizotinib (first compound 1 µM), 0.53; in the assay with AZD8055 + Linsitinib (first compound 0.01 µM), 0.992; in the assay with AZD8055 + Linsitinib (first compound 0.03162 µM), 0.972. Also, the relative viability in the assay with AZD8055 + Linsitinib (first compound 0.1 µM) was determined as 0.882; with AZD8055 + Linsitinib (first compound 0.3162 µM), 0.673; in the assay with AZD8055 + Linsitinib (first compound 1 µM), 0.461; with AZD8055 + Tozasertib (first compound 0.01 µM), 0.864; in the assay with AZD8055 + Tozasertib (first compound 0.03162 µM), 0.993; with AZD8055 + Tozasertib (first compound 0.1 µM) it was 0.978. Further, the relative viability was 0.614 with AZD8055 + Tozasertib (first compound 0.3162 µM) and 0.431 in the assay with AZD8055 + Tozasertib (first compound 1 µM).

With NCI-H1993, the relative viability in the assay with AZD8055 + OSI-027 (first compound 0.01 µM) stood at 0.545; with AZD8055 + OSI-027 (first compound 0.03162 µM), 0.502; in the assay with AZD8055 + OSI-027 (first compound 0.1 µM), 0.625; with AZD8055 + OSI-027 (first compound 0.3162 µM), 0.353; with AZD8055 + OSI-027 (first compound 1 µM), 0.568; with AZD8055 + Crizotinib (first compound 0.01 µM) it was 0.819. Further, the relative viability with AZD8055 + Crizotinib (first compound 0.03162 µM) is 0.688; in the assay with AZD8055 + Crizotinib (first compound 0.1 µM) it was 0.59; with AZD8055 + Crizotinib (first compound 0.3162 µM), 0.588; with AZD8055 + Crizotinib (first compound 1 µM), 0.609; in the assay with AZD8055 + Linsitinib (first compound 0.01 µM), 0.721; in the assay with AZD8055 + Linsitinib (first compound 0.03162 µM), 0.593. The relative viability with AZD8055 + Linsitinib (first compound 0.1 µM) was found to be 0.688; with AZD8055 + Linsitinib (first compound 0.3162 µM), 0.702; in the assay with AZD8055 + Linsitinib (first compound 1 µM) it was 0.695; with AZD8055 + Tozasertib (first compound 0.01 µM) it was 0.55; with AZD8055 + Tozasertib (first compound 0.03162 µM), 0.534; with AZD8055 + Tozasertib (first compound 0.1 µM), 0.518. Moreover, the relative viability amounted to 0.47 with AZD8055 + Tozasertib (first compound 0.3162 µM) and 0.526 in the assay with AZD8055 + Tozasertib (first compound 1 µM).

Consider NCI-H358, for which the relative viability with AZD8055 + OSI-027 (first compound 0.01 µM) was found to be 0.871; with AZD8055 + OSI-027 (first compound 0.03162 µM), 0.708; with AZD8055 + OSI-027 (first compound 0.1 µM), 0.576; with AZD8055 + OSI-027 (first compound 0.3162 µM), 0.29; with AZD8055 + OSI-027 (first compound 1 µM), 0.164; with AZD8055 + Crizotinib (first compound 0.01 µM), 0.678. Besides, the relative viability with AZD8055 + Crizotinib (first compound 0.03162 µM) is 0.934; in the assay with AZD8055 + Crizotinib (first compound 0.1 µM), 0.69; with AZD8055 + Crizotinib (first compound 0.3162 µM), 0.442; with AZD8055 + Crizotinib (first compound 1 µM) it was 0.211; in the assay with AZD8055 + Linsitinib (first compound 0.01 µM) it was 0.728; in the assay with AZD8055 + Linsitinib (first compound 0.03162 µM), 0.561. In addition, the relative viability was 0.429 in the assay with AZD8055 + Linsitinib (first compound 0.1 µM); 0.209 with AZD8055 + Linsitinib (first compound 0.3162 µM); 0.236 with AZD8055 + Linsitinib (first compound 1 µM); 0.0893 with AZD8055 + Tozasertib (first compound 0.01 µM); 0.121 in the assay with AZD8055 + Tozasertib (first compound 0.03162 µM); 0.102 with AZD8055 + Tozasertib (first compound 0.1 µM). Besides, the relative viability with AZD8055 + Tozasertib (first compound 0.3162 µM) stood at 0.0607; in the assay with AZD8055 + Tozasertib (first compound 1 µM), 0.0813.

Take NCI-H1915: the relative viability in the assay with AZD8055 + OSI-027 (first compound 0.01 µM) was 0.664; with AZD8055 + OSI-027 (first compound 0.03162 µM) it was 0.551; with AZD8055 + OSI-027 (first compound 0.1 µM) it was 0.656; with AZD8055 + OSI-027 (first compound 0.3162 µM), 0.547; with AZD8055 + OSI-027 (first compound 1 µM), 0.459; with AZD8055 + Crizotinib (first compound 0.01 µM), 0.922. The relative viability came to 0.822 in the assay with AZD8055 + Crizotinib (first compound 0.03162 µM); 0.901 with AZD8055 + Crizotinib (first compound 0.1 µM); 0.642 with AZD8055 + Crizotinib (first compound 0.3162 µM); 0.422 with AZD8055 + Crizotinib (first compound 1 µM); 1.19 in the assay with AZD8055 + Linsitinib (first compound 0.01 µM); 0.977 in the assay with AZD8055 + Linsitinib (first compound 0.03162 µM). Further, the relative viability was determined as 1.08 with AZD8055 + Linsitinib (first compound 0.1 µM); 0.837 with AZD8055 + Linsitinib (first compound 0.3162 µM); 0.558 with AZD8055 + Linsitinib (first compound 1 µM); 0.533 with AZD8055 + Tozasertib (first compound 0.01 µM); 0.433 with AZD8055 + Tozasertib (first compound 0.03162 µM); 0.46 in the assay with AZD8055 + Tozasertib (first compound 0.1 µM). Further, the figures for the relative viability with AZD8055 + Tozasertib (first compound 0.3162 µM) and with AZD8055 + Tozasertib (first compound 1 µM) were 0.387 and 0.35, respectively.

For the cell line RERF-LC-KJ, the relative viability in the assay with AZD8055 + OSI-027 (first compound 0.01 µM) came to 0.587; with AZD8055 + OSI-027 (first compound 0.03162 µM), 0.671; in the assay with AZD8055 + OSI-027 (first compound 0.1 µM) it was 0.522; with AZD8055 + OSI-027 (first compound 0.3162 µM), 0.387; with AZD8055 + OSI-027 (first compound 1 µM) it was 0.362; with AZD8055 + Crizotinib (first compound 0.01 µM), 0.863. The relative viability with AZD8055 + Crizotinib (first compound 0.03162 µM) was 0.974; with AZD8055 + Crizotinib (first compound 0.1 µM), 0.756; in the assay with AZD8055 + Crizotinib (first compound 0.3162 µM) it was 0.578; with AZD8055 + Crizotinib (first compound 1 µM) it was 0.452; with AZD8055 + Linsitinib (first compound 0.01 µM), 0.86; with AZD8055 + Linsitinib (first compound 0.03162 µM), 0.739. For the same cell line, the relative viability with AZD8055 + Linsitinib (first compound 0.1 µM) was determined as 0.597; with AZD8055 + Linsitinib (first compound 0.3162 µM), 0.44; with AZD8055 + Linsitinib (first compound 1 µM), 0.352; in the assay with AZD8055 + Tozasertib (first compound 0.01 µM), 0.519; with AZD8055 + Tozasertib (first compound 0.03162 µM), 0.556; in the assay with AZD8055 + Tozasertib (first compound 0.1 µM) it was 0.421. Also, the relative viability was 0.333 with AZD8055 + Tozasertib (first compound 0.3162 µM) and 0.299 in the assay with AZD8055 + Tozasertib (first compound 1 µM).
